Where “and” joins values, the source holds several entries; their conditions need not be identical. Equal entries are not always repeated. Where two headings read alike, the source gives them in different places.
Legend:
[1] = tested on: S. mansoni newly transformed schistosomula (NTS); experiment: Schistosome phenotypic assay; format: cell-based, Schistosoma mansoni; settings: for Severity score Day 1 / Severity score Day 2 / Severity score Day 3 / Severity score Day 4: 10 μM inhibitor, scale 0 (no effect) to 4 (severe); for Severity score Day 1: 24 h; for Severity score Day 2: 48 h
Protocol: Newly transformed schistosomula (NTS) of S. mansoni were prepared by mechanically transforming infective larvae (cercariae) as described previously.[70],[71] NTS (200–300 parasites) were incubated in 200 μL of Basch Medium 169 containing 5% FBS, 100 U mL^–1 penicillin, and 100 μg mL^–1 streptomycin at 5% CO2 and 37 °C.[70],[72],[73] Inhibitors were added at the final concentration of 10 μM,[20],[69] and changes in phenotypes were observed every 24 h for up to 4 days. A constrained nomenclature of “descriptors” is used to record the multiple and dynamic changes in movement, shape, and translucence of which the schistosome parasite is capable (Table S3).[70] These descriptors are then converted into an ordinal “severity score” system from 0 (no effect) to 4 (maximum effect), which allows for the relative comparison of compound effects, as described.[74],[75] Images of NTS were captured using a Zeiss Axiovert 40 C inverted microscope (10× objective) and a Zeiss AxioCam MRc digital camera controlled by AxioVision 40 (v. 4.8.1.0) software.

recombinant SmCB1 = recombinant SmCB1 (Schistosoma mansoni, UniProt Q8MNY2, T185A/T300A); experiment: SmCB1 kinetic inhibition assay with fluorogenic substrate Cbz-Phe-Arg-AMC; format: biochemical; settings: for Ki / SmCB1 inhibition k2nd (second-order rate constant): substrate Cbz-Phe-Arg-AMC; for binding kinetics (shape of progress curves): Figure 2; for SmCB1 inhibition k2nd (second-order rate constant): slow-binding azadipeptide nitriles
Protocol: Inhibition measurements were performed in triplicates in 96-well microplates (100 μL assay volume) at 37 °C. SmCB1 (20–40 pM) was added to a mixture of the fluorogenic substrate Cbz-Phe-Arg-AMC (20 μM) and an inhibitor (0–100 μM) in 0.1 M sodium acetate, pH 5.5, containing 2.5 mM dithiothreitol and 0.1% PEG 6000. The substrate hydrolysis was monitored in an Infinite M1000 microplate reader (Tecan, Männedorf, Switzerland) at excitation and emission wavelengths of 360 and 465 nm, respectively, for up to 15 and 60 min for fast- and slow-binding inhibitors, respectively. […] For slow-binding inhibitors, an observed first-order rate constant kobs was calculated at each inhibitor concentration by fitting the progress curve to the equation P = vst + (vi – vs)(1 – […])/kobs + d, where P is the product formation, vs is the steady-state velocity, t is the reaction time, vi is the initial velocity, and d is the offset. The inhibition constant Ki′ was determined by nonlinear regression using the equation vs/v0 = 1/(1 + [I]/Ki′). The true inhibition constants Ki were then calculated using the equation Ki = Ki′/(1 + [S]/Km), where [S] is the substrate concentration and Km is the Michaelis constant. The apparent second-order rate constant k2nd′ was determined by fitting to the linear equation kobs = k2nd′[I] + koff, where koff is the first-order rate constants for the dissociation of the enzyme–inhibitor complex and the true constant k2nd was calculated by the correction k2nd = k2nd′(1 + [S]/Km). […] In none of the assay systems did the final concentration of DMSO exceed 1.5%.

[2] = SmCB1 inhibition Ki, Table S2, carbadipeptide nitriles
[3] = SmCB1 inhibition Ki, kinetic activity assay, pH 5.5, 37 °C
[4] = Table S2, carbadipeptide nitriles, read-out: SmCB1 inhibition Ki

Chain of recombinant SmCB1 (Q8MNY2 87-340 T185A/T300A): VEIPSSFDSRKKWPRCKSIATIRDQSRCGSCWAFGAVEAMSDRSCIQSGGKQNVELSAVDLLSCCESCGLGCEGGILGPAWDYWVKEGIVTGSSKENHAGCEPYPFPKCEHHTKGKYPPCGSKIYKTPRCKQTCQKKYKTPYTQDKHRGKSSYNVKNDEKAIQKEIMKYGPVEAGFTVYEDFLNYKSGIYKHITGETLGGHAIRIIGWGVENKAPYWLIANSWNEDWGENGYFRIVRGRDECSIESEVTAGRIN

Row | Compound | Severity score Day 1 [1] | Severity score Day 2 [1] | Severity score Day 3 [1] | Severity score Day 4 [1] | Ki (recombinant SmCB1; [2]) [µM] | Ki (recombinant SmCB1; [3]) [µM] | Ki (recombinant SmCB1; [4]) [µM] | other results
1 | CN(C#N)N(C)C(=O)CNC(=O)OCc1ccccc1 [Compound 1a] | 0 and 0/0 | 0 and 0/0 | 0 | 0 | – | – | – | phenotype severity against NTS ([1]; 10 μM, up to 4 days): ineffective
2 | N#CCNC(=O)CNC(=O)OCc1ccccc1 [Compound 1c] | 0 | 0 | 0 | 0 | > 10 | > 100 | – | –
3 | CN(C#N)N(C)C(=O)[C@H](Cc1ccccc1)NC(=O)OCc1ccccc1 [Compound 2a] | 4 and 4/4 | 4 and 4/4 | 4 | 4 | – | 0.0194 ± 0.0014 | – | koff (recombinant SmCB1): 0.0003 ± 2e-05 s⁻¹; binding kinetics (shape of progress curves) (recombinant SmCB1): slow-binding; SmCB1 inhibition k2nd (second-order rate constant) (recombinant SmCB1): 15.7 ± 1.1 10^3 M^-1 s^-1; Descriptors Day 1 (phenotypic changes) ([1]; 10 µM inhibitor): Deg; Descriptors Day 2 (phenotypic changes) ([1]; 10 µM inhibitor): Deg
4 | N#CCNC(=O)[C@H](Cc1ccccc1)NC(=O)OCc1ccccc1 [Compound 2c] | 0 | 0 | 0 | 0 | 2.92 ± 0.32 | 2.92 ± 0.32 | – | binding kinetics (shape of progress curves) (recombinant SmCB1): fast-binding
5 | CC(C)C[C@H](NC(=O)NCc1ccccc1)C(=O)NCC#N [Compound 3c, (S)-2-(3-Benzylureido)-N-(cyanomethyl)-4-methylpentanamide] | 0 | 0 | 0 | 0 | > 10 | > 100 | – | –
6 | CC(C)C[C@H](NC(=O)Nc1ccc(-c2noc(-c3cccs3)n2)cc1)C(=O)N(C)N(C)C#N [Compound 4a] | 3 | 4 | 4 | 4 | – | 0.0367 ± 0.0026 | – | SmCB1 inhibition k2nd (second-order rate constant) (recombinant SmCB1): 13.9 ± 2.9 10^3 M^-1 s^-1; Descriptors Day 1 (phenotypic changes) ([1]; 10 µM inhibitor): R, Unc, Dark; Descriptors Day 2 (phenotypic changes) ([1]; 10 µM inhibitor): Deg
7 | CC(C)C[C@H](NC(=O)Nc1ccc(-c2noc(-c3cccs3)n2)cc1)C(=O)NCC#N [Compound 4c] | 2 | 1 | 0 | 2 | 6.62 ± 0.91 | 6.62 ± 0.91 | – | Descriptors Day 1 (phenotypic changes) ([1]; 10 µM inhibitor): R, S; Descriptors Day 2 (phenotypic changes) ([1]; 10 µM inhibitor): R; Descriptors Day 4 (phenotypic changes) ([1]; 10 µM inhibitor): R, S
8 | CC(C)C[C@H](NC(=O)c1ccc(-c2noc(-c3cccs3)n2)cc1)C(=O)NCC#N [Compound 5c] | 0 | 1 | 2 | 4 | 1.22 ± 0.2 | 1.21 ± 0.205 | – | Descriptors Day 2 (phenotypic changes) ([1]; 10 µM inhibitor): R; Descriptors Day 3 (phenotypic changes) ([1]; 10 µM inhibitor): R, Dark; Descriptors Day 4 (phenotypic changes) ([1]; 10 µM inhibitor): Deg
9 | CC(C)C[C@@H](C(=O)N(C)N(C)C#N)N(C)C(=O)c1ccc(-c2noc(-c3cccs3)n2)cc1 [Compound 6a] | 4 and 4/4 | 4 and 4/4 | 4 | 4 | – | 1.54 ± 0.25 | – | decrease in potency versus 5a (recombinant SmCB1; ratio of SmCB1 Ki values): 300 fold; SmCB1 inhibition k2nd (second-order rate constant) (recombinant SmCB1): 0.5 ±0.1 10^3 M^-1 s^-1; Descriptors Day 1 (phenotypic changes) ([1]; 10 µM inhibitor): Deg; Descriptors Day 2 (phenotypic changes) ([1]; 10 µM inhibitor): Deg
10 | CC(C)C[C@@H](C(=O)NCC#N)N(C)C(=O)c1ccc(-c2noc(-c3cccs3)n2)cc1 [Compound 6c] | 0 | – | 0 | – | > 10 | > 100 | – | Descriptors Day 4 (phenotypic changes) ([1]; 10 µM inhibitor): R
11 | CN(C#N)N(C)C(=O)C1(NC(=O)c2ccc(-c3noc(-c4cccs4)n3)cc2)CCCCC1 [Compound 7a] | 3 | 4 | 4 | 4 | – | 0.229 ± 0.007 | – | Descriptors Day 1 (phenotypic changes) ([1]; 10 µM inhibitor): R, Unc, Dark; Descriptors Day 2 (phenotypic changes) ([1]; 10 µM inhibitor): Deg
12 | N#CCNC(=O)C1(NC(=O)c2ccc(-c3noc(-c4cccs4)n3)cc2)CCCCC1 [Compound 7c] | 0 | 0 | 0 | 0 | > 10 | > 100 | – | –
13 | C[C@@H](C#N)NC(=O)[C@H](Cc1ccccc1)NC(=O)OCc1ccccc1 [Compound 8c] | 0 | 0 | 0 | 0 | > 10 | – | – | –
14 | CC(C)(C)OC(=O)NCC(=O)NCC#N [Gü807] | – | – | – | – | – | – | > 10 | –
15 | CC(C)(C)OC(=O)N[C@@H](Cc1ccccc1)C(=O)NCC#N [Gü809] | – | – | – | – | – | – | > 10 | –
16 | CC(C)C[C@H](NC(=O)OC(C)(C)C)C(=O)NCC#N [Gü914] | – | – | – | – | – | – | > 10 | –
17 | CC(C)(C)OC(=O)N[C@@H](Cc1ccc(O)cc1)C(=O)NCC#N [Gü915] | – | – | – | – | – | – | > 10 | –
18 | CC(C)(C)OC(=O)N[C@@H](Cc1c[nH]c2ccccc12)C(=O)NCC#N [Gü916] | – | – | – | – | – | – | > 10 | –
19 | CC(C)C[C@H](NC(=O)OCc1ccccc1)C(=O)NCC#N [Gü928] | – | – | – | – | – | – | > 10 | –
20 | CC(C)(C)OC(=O)N[C@@H](CC1CCCCC1)C(=O)NCC#N [Gü929] | – | – | – | – | – | – | > 10 | –
21 | CC(C)(C)OC(=O)N[C@@H](COCc1ccccc1)C(=O)NCC#N [Gü930] | – | – | – | – | – | – | > 10 | –
22 | CC(C)[C@H](NC(=O)OC(C)(C)C)C(=O)NCC#N [Gü931] | – | – | – | – | – | – | > 10 | –
